Test results taken from patent publication US7897591B2, “Method of treating fatty liver disease” (priority 2005, dated 2011).

Test system: IL-6
Assay: ELISA for serum IL-6 levels
Type: in vivo, mouse
Details: HCD+MAR vs HCD-only group, P=0.001
Description: Control animals (n=5) received normal chow and water ad libitum. All animals in the experimental groups were fed a fat-free, high carbohydrate liquid diet (HCD) ad libitum placed in one bottle per cage as previously described (3, 62). No additional sources of nutrition or hydration were provided. The HCD liquid solution contained 20% dextrose, a commercial mixture of 2% essential and nonessential amino acids (TrophAmine, B. Braun Medical, Irvine, Calif.), 2 ml trace elements (Trace Elements Injection 4, USP—Pediatric, American Regent Shirley, N.Y.), and 5 ml multivitamins (M.V.I. Pediatric™, Mayne Pharma, Paramus, N.J.). Each liter of HCD contained 30 meq sodium, 20 meq potassium chloride, 15 meq calcium, 10 meq magnesium, and 10 mM phosphate. The bottles were replaced daily with fresh HCD solution. HCD animals (n=5) received HCD only and no additional treatment for 19 days. The HCD+MAR animals (n=15) additionally received 100 mg/kg of Marimastat™ in 0.45% methylcellulose (Sigma-Aldrich Corporation, St. Louis, Mo.) vehicle twice daily via orogastric gavage. The animals were individually weighed every third day and at sacrifice. Mouse serum IL-6 levels were determined using a commercial ELISA kit (Quantikine®, R&D systems, Inc., Minneapolis, Minn.). Optical density was read at 450 nm and analyzed with Softmax® PRO Software (Molecular Devices Corporation, Sunnyvale, Calif.).

## CNC(=O)[C@@H](NC(=O)[C@H](CC(C)C)[C@H](O)C(=O)NO)C(C)(C)C [Marimastat]
  serum IL-6 level: significantly higher
